Source: patent publication US12180198B2, “Ribocil C antibiotics effective for Gram-negative pathogens” (THE BOARD OF TRUSTEES OF THE UNIVERSITY OF ILLINOIS, priority 2018, dated 2024)
Structures can show the parent of a compound that is named as a salt. Where two headings read alike, the source gives them in different places.

Experiments:
[1] = test system: A. baumannii BAA-2093; experiment: Bioactivity against exemplary strains of bacteria (Table 5A); format: cell-based; conditions: Strain 3: A. baumannii BAA-2093
[2] = test system: E. coli BAA-2469; experiment: as above; format: cell-based; parameters: unit not given here; conditions: Strain 2: E. coli BAA-2469
[3] = test system: K. pneumoniae BAA-2146; experiment: as above; format: cell-based; conditions: Strain 4: K. pneumoniae BAA-2146
[4] = test system: E. coli strains with intact outer membranes; experiment: MIC, micro-dilution broth method (text summary); format: cell-based; conditions: E. coli strains with intact outer membranes
Protocol: FIG. 2. Antimicrobial activity of Debio-1452 and derivatives. MIC values were determined using the micro-dilution broth method as outlined by the Clinical and Laboratory Standards Institute (clsi.org/). All experiments were performed in biological triplicate.
(§1) Antimicrobial susceptibility tests. Susceptibility testing was performed in biological triplicate, using the micro-dilution broth method as outlined by the Clinical and Laboratory Standards Institute. Bacteria were cultured with cation-adjusted Muller-Hinton broth (Sigma-Aldrich, Cat #90922) in round-bottom 96-well plates (Corning, Cat #3788). Human serum (pooled gender, 0.2 μm filtered) was purchased from BioIVT (Hicksville, NY).

[5] = test system: H. sapiens IMR-90; experiment: Cell viability, Alamar Blue; format: cell-based; conditions: Homo sapiens, IMR-90, read-out: % inhibition at 30 μM
Protocol: Cell culture. IMR90 cells were obtained from ATCC. IMR90 cells were grown in EMEM with 10% fetal bovine serum (Gemini Benchmark, Cat #100-106), 100 U/mL penicillin, and 100 μg/mL streptomycin. All cells were cultured at 37° C. in a 5% CO2 environment. Media was prepared by the University of Illinois School of Chemical Sciences Cell Media Facility. Sex and age of cell lines: IMR90 ([…]).
Cell viability. Cells seeded (IMR90: 5,000 cells/well) a 96-well plate (Greiner Bio-One, Cat #655180) and were allowed to attach overnight. Cells were treated with investigational compounds in DMSO (30 μM, 1% DMSO final, 100 μL/well). Raptinal (100 μM) was used as a dead control. After 24 h post-treatment, media was exchanged with compound-free media. After 72 h post-treatment, cell viability was assessed using the Alamar Blue method. Stock Alamar Blue solution [10 μL, 440 μM resazurin (Sigma-Aldrich, Cat #R7017) in sterile 1×PBS] was added to each well, and plate was incubated […]. Conversion of Alamar Blue was measured with plate reader (SpectraMax M3, Molecular Devices) by fluorescence (ex 555 nm, em 585 nm, cutoff 570 nm, autogain). Percent death was determined by normalizing to DMSO-treated cells and raptinal-treated cells.

[6] = test system: E. coli ΔtolC JW5503; experiment: MIC, micro-dilution broth method; format: cell-based; conditions: Escherichia coli
Protocol: (§2) Compounds were evaluated against a panel of Gram-positive and Gram-negative organisms. MIC values were determined using the micro-dilution broth method as outlined by the Clinical and Laboratory Standards Institute (clsi.org/) and are listed in […]. All experiments were performed in biological triplicate.
as §1

[7] = test system: S. aureus ATCC 29213; experiment: MIC, micro-dilution broth method; format: cell-based; conditions: Staphylococcus aureus, ATCC29213, S. aureus ATCC 29213
Protocol: as §2, §1

[8] = test system: E. coli MG1655; experiment: MIC, micro-dilution broth method; format: cell-based; conditions: Escherichia coli
Protocol: as §2, §1

[9] = test system: E. coli ΔrfaC JW3596; experiment: MIC, micro-dilution broth method; format: cell-based; conditions: Escherichia coli
Protocol: as §2, §1

[10] = Mouse MTD; conditions: mice, IP injection, single dose, monitored 2 weeks
Protocol: The protocol was approved by the IACUC at the University of Illinois at Urbana-Champaign (Protocol Number: 16144). In these studies, 10- to 12-week-old female C57BL/6 mice purchased from Charles River were used. The maximum tolerate dose (MTD) of a single compound was determined first. […] For multiple doses, the compound was given by daily IP for 5 consecutive days and mice were monitored for signs of toxicity for 1 month. MTD was the highest dosage with acceptable toxicity (e.g., <20% weight loss). Single dose MTDs were initially determined.

[11] = test system: A. baumannii W41979; experiment: MIC, micro-dilution broth method; format: cell-based; conditions: Acinetobacter baumannii; A. baumannii W41979; read-out: MIC
Protocol: as §2, §1

[12] = test system: A. baumannii KB304; experiment: MIC, micro-dilution broth method; format: cell-based; conditions: Acinetobacter baumannii; A. baumannii KB304; read-out: MIC
Protocol: as §2, §1

[13] = test system: K. pneumoniae S47889; experiment: MIC, micro-dilution broth method; format: cell-based; conditions: Klebsiella pneumoniae; K. pneumoniae S47889; read-out: MIC
Protocol: as §2, §1

[14] = test system: K. pneumoniae BAA-1705; experiment: MIC, micro-dilution broth method; format: cell-based; conditions: Klebsiella pneumoniae, BAA1705; K. pneumoniae BAA-1705; read-out: MIC
Protocol: as §2, §1

[15] = test system: K. pneumoniae M67297; experiment: MIC, micro-dilution broth method; format: cell-based; conditions: Klebsiella pneumoniae; K. pneumoniae M67297; read-out: MIC
Protocol: as §2, §1

[16] = test system: E. coli AR-0495; experiment: MIC, micro-dilution broth method; format: cell-based; conditions: Escherichia coli, AR0495; E. coli AR-0495; read-out: MIC
Protocol: as §2, §1

[17] = test system: K. pneumoniae S20595; experiment: MIC, micro-dilution broth method; format: cell-based; conditions: Klebsiella pneumoniae; K. pneumoniae S20595; read-out: MIC
Protocol: as §2, §1

[18] = test system: E. cloacae BAA-2341; experiment: MIC, micro-dilution broth method; format: cell-based; conditions: Enterobacter cloacae, BAA2341; E. cloacae BAA-2341; read-out: MIC
Protocol: as §2, §1

[19] = test system: A. baumannii KB357; experiment: MIC, micro-dilution broth method; format: cell-based; conditions: Acinetobacter baumannii; A. baumannii KB357; read-out: MIC
Protocol: as §2, §1

[20] = test system: E. cloacae S28901.1; experiment: MIC, micro-dilution broth method; format: cell-based; conditions: Enterobacter cloacae; E. cloacae S28901.1; read-out: MIC
Protocol: as §2, §1

[21] = test system: E. coli BAA-2471; experiment: MIC, micro-dilution broth method; format: cell-based; conditions: Escherichia coli, BAA2471; E. coli BAA-2471; read-out: MIC
Protocol: as §2, §1

[22] = test system: K. pneumoniae BAA-2473; experiment: MIC, micro-dilution broth method; format: cell-based; conditions: Klebsiella pneumoniae, BAA2473; K. pneumoniae BAA-2473; read-out: MIC
Protocol: as §2, §1

[23] = test system: E. coli AR-0349; experiment: MIC, micro-dilution broth method; format: cell-based; conditions: Escherichia coli, AR0349; E. coli AR-0349; read-out: MIC
Protocol: as §2, §1

[24] = test system: A. baumannii M13100; experiment: MIC, micro-dilution broth method; format: cell-based; conditions: Acinetobacter baumannii; A. baumannii M13100; read-out: MIC
Protocol: as §2, §1

[25] = test system: K. pneumoniae BAA-2470; experiment: MIC, micro-dilution broth method; format: cell-based; conditions: Klebsiella pneumoniae, BAA2470; K. pneumoniae BAA-2470; read-out: MIC
Protocol: as §2, §1

[26] = test system: K. pneumoniae BAA-2472; experiment: MIC, micro-dilution broth method; format: cell-based; conditions: Klebsiella pneumoniae, BAA2472; K. pneumoniae BAA-2472; read-out: MIC
Protocol: as §2, §1

[27] = test system: K. pneumoniae M14723; experiment: MIC, micro-dilution broth method; format: cell-based; conditions: Klebsiella pneumoniae; K. pneumoniae M14723; read-out: MIC
Protocol: as §2, §1

[28] = test system: E. coli AR-0346; experiment: MIC, micro-dilution broth method; format: cell-based; conditions: Escherichia coli, AR0346; E. coli AR-0346; read-out: MIC
Protocol: as §2, §1

[29] = test system: E. coli BAA-2469; experiment: MIC, micro-dilution broth method; format: cell-based; conditions: Escherichia coli, BAA2469; E. coli BAA-2469; read-out: MIC
Protocol: as §2, §1

[30] = test system: A. baumannii F19521; experiment: MIC, micro-dilution broth method; format: cell-based; conditions: Acinetobacter baumannii; A. baumannii F19521; read-out: MIC
Protocol: as §2, §1

[31] = test system: K. pneumoniae M67198; experiment: MIC, micro-dilution broth method; format: cell-based; conditions: Klebsiella pneumoniae; K. pneumoniae M67198; read-out: MIC
Protocol: as §2, §1

[32] = test system: A. baumannii KB343; experiment: MIC, micro-dilution broth method; format: cell-based; conditions: Acinetobacter baumannii; A. baumannii KB343; read-out: MIC
Protocol: as §2, §1

[33] = test system: K. pneumoniae BAA-2342; experiment: MIC, micro-dilution broth method; format: cell-based; conditions: Klebsiella pneumoniae, BAA2342; K. pneumoniae BAA-2342; read-out: MIC
Protocol: as §2, §1

[34] = test system: K. pneumoniae AR-0347; experiment: MIC, micro-dilution broth method; format: cell-based; conditions: Klebsiella pneumoniae, AR0347; K. pneumoniae AR-0347; read-out: MIC
Protocol: as §2, §1

[35] = test system: A. baumannii WO22; experiment: MIC, micro-dilution broth method; format: cell-based; conditions: Acinetobacter baumannii; A. baumannii WO22; read-out: MIC
Protocol: as §2, §1

[36] = test system: E. coli AR-0493; experiment: MIC, micro-dilution broth method; format: cell-based; conditions: Escherichia coli, AR0493; E. coli AR-0493; read-out: MIC
Protocol: as §2, §1

[37] = test system: E. cloacae BAA-2468; experiment: MIC, micro-dilution broth method; format: cell-based; conditions: Enterobacter cloacae, BAA2468; E. cloacae BAA-2468; read-out: MIC
Protocol: as §2, §1

Cc1ccc2nc(/C=C/c3ccc(Cl)cc3)nc(NCCN)c2c1 [Z14, (E)-N^1-(2-(4-chlorostyryl)-6-methylquinazolin-4-yl)ethane-1,2-diamine]
Bioactivity [1]: 8
Bioactivity [2]: 8
Bioactivity [3]: 64

CCN(CC)CCNc1nc(/C=C/c2ccc(Cl)cc2)nc2cc3ccccc3cc12 [Z3, Zantrin Z3, reference compound]
Bioactivity [1]: 32
Bioactivity [2]: >64
Bioactivity [3]: >64

Cc1c(CN(C)C(=O)/C=C/c2cnc3c(c2)CC(CCN)C(=O)N3)oc2ccccc12 (stereo not drawn) [compound 3, (E)-3-(6-(aminoethyl)-7-oxo-5,6,7,8-tetrahydro-1,8-naphthyridin-3-yl)-N-methyl-N-((3-methylbenzofuran-2-yl)methyl)acrylamide hydrochloride]
antibacterial activity (in words) [4]: active
inhibition at 30 µM [5]: 12%
MIC [6]: 0.062 µg/mL
MIC [7]: 0.125 µg/mL
MIC ([8]; MG1655): 8 µg/mL
MIC [9]: 0.5 µg/mL
single dose well tolerated [10]: 100 mg/kg

NCc1cnc(-n2cnc(CN3CCCC(c4nc(O)cc(-c5cccs5)n4)C3)c2)nc1 (stereo not drawn) [R13a]
Bioactivity [1]: >128
Bioactivity [2]: 16
Bioactivity [3]: 64

NCCNc1nc(/C=C/c2ccc(Cl)cc2)nc2cc3ccccc3cc12 [Z7, (E)-N^1-(2-(4-chlorostyryl)benzo[g]quinazolin-4-yl)ethane-1,2-diamine]
Bioactivity [1]: 2
Bioactivity [2]: 4
Bioactivity [3]: >32

Cc1c(CN(C)C(=O)/C=C/c2cnc3c(c2)CC(CN)C(=O)N3)oc2ccccc12.Cl (stereo not drawn) [compound 2, (E)-3-(6-(aminomethyl)-7-oxo-5,6,7,8-tetrahydro-1,8-naphthyridin-3-yl)-N-methyl-N-((3-methylbenzofuran-2-yl)methyl)acrylamide hydrochloride]
antibacterial activity (in words) [4]: active
MIC [11]: 16 µg/mL
MIC [12]: 64 µg/mL
MIC [6]: 0.125 µg/mL
MIC [13]: 8 µg/mL
MIC ([7]; read-out: MIC): 0.03 µg/mL
MIC [14]: 16 µg/mL
MIC [15]: 32 µg/mL
MIC [16]: 2 µg/mL
MIC [17]: 16 µg/mL
MIC [18]: 16 µg/mL
MIC [19]: > 64 µg/mL
MIC [20]: 8 µg/mL
MIC [21]: 4 µg/mL
MIC [22]: 16 µg/mL
MIC [23]: 2 µg/mL
MIC [24]: 16 µg/mL
MIC [25]: 4 µg/mL
MIC [26]: 16 µg/mL
MIC [27]: 16 µg/mL
MIC [28]: 4 µg/mL
MIC [29]: 2 µg/mL
MIC [30]: 16 µg/mL
MIC ([8]; E. coli MG1655, read-out: MIC): 8 µg/mL
MIC [31]: 32 µg/mL
MIC [32]: > 64 µg/mL
MIC [33]: 16 µg/mL
MIC [9]: 0.5 µg/mL
MIC [34]: 8 µg/mL
MIC [35]: > 64 µg/mL
MIC [36]: 4 µg/mL
MIC [37]: 8 µg/mL
